Reference: patent publication US20080176866A1, “NOVEL HETARYL-PHENYLENEDIAMINE-PYRIMIDINES AS PROTEIN KINASE INHIBITORS” (priority 2006, published 2008)

Experiments:
KDR kinase = target: T1, KDR kinase (Homo sapiens, UniProt P35968); test: KDR kinase assay (HTRF); type: biochemical; details: KDR kinase-GST, 10 μM ATP
T1 construct: GST; purchased ProQinase GmbH, Freiburg; host or cells: baculovirus-infected insect cells (Sf9)
Experimental: The KDR-inhibitory activity of the substances of this invention was measured in the KDR-HTRF assay (HTRF=Homogeneous Time Resolved Fluorescence) described in the following paragraphs.
Recombinant KDR kinase-GST fusion protein purified from baculovirus-infected insect cells (Sf9) was purchased from ProQinase GmbH, Freiburg. The substrate used for the kinase reaction was the biotinylated peptide biotin-Ahx-DFGLARDMYDKEYYSVG (C terminus in acid form) which can be purchased for example from Biosynthan GmbH (Berlin-Buch, Germany).
KDR kinase was incubated in the presence of various concentrations of test substances in 5 μL of assay buffer [50 mM Hepes/NaOH pH 7.0, 25 mM MgCl2, 5 mM MnCl2, 1.0 mM dithiothreitol, 0.1 mM sodium orthovanadate, 10 μM adenosine triphosphate (ATP), 0.5 μM substrate, 0.001% (v/v) Nonidet-P40 (Sigma), 1% (v/v) dimethyl sulphoxide] at 22° C. for 45 min. The concentration of KDR was adapted to the particular activity of the enzyme and adjusted so that the assay operated in the linear range. The reaction was stopped by adding 5 μl of a solution of HTRF detection reagents (0.1 μM streptavidin-XLent and 2 nM PT66-Eu chelate, a Europium chelate-labelled anti-phospho-tyrosine antibody from Perkin Elmer) in aqueous EDTA solution (125 mM EDTA, 0.2% (w/v) bovine serum albumin (BSA) in 50 mM HEPES/NaOH pH 7.0).
(§1) The resulting mixture was incubated at 22° C. for 1 h in order to allow formation of the biotinylated phosphorylated substrate and the streptavidin-XLent and PT66-Eu chelate. The amount of phosphorylated substrate was then estimated by measuring the resonance energy transfer from the PT66-Eu chelate to the streptavidin-XLent. For this purpose, the fluorescence emissions at 620 nm and 665 nm after excitation at 350 nm were measured in an HTRF measuring instrument, e.g. a Rubystar (BMG Labtechnologies, Offenburg, Germany) or a Viewlux (Perkin-Elmer). The ratio of the emissions at 665 nm and at 622 nm was taken as a measure of the amount of phosphorylated substrate. The data were normalized (enzymic reaction without inhibitor=0% inhibition, all other assay components but no enzyme=100% inhibition) and IC50 values were calculated with a 4-parameter fit using an inhouse software.

human Aurora-C = target: T2, human Aurora-C (Homo sapiens, UniProt Q9UQB9); test: Aurora-C kinase assay (HTRF); type: biochemical; details: GST-human Aurora-C, 10 μM ATP
T2 construct: GST; made in house; host or cells: transiently transfected HEK293 cells
T2 sequence (Q9UQB9 1-309): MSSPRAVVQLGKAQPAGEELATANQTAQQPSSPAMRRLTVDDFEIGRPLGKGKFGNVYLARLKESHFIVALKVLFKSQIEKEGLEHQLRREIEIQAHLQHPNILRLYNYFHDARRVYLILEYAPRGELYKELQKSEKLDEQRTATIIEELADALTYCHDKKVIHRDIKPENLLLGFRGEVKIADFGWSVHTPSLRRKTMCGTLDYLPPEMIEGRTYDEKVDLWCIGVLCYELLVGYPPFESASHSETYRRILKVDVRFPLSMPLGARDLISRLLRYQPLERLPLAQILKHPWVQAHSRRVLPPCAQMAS
Experimental: The Aurora-C inhibitory activity of the substances of this invention was measured in the Aurora-C-HTRF assay (HTRF=Homogeneous Time Resolved Fluorescence) described in the following paragraphs.
Recombinant fusion protein of GST and human Aurora-C was expressed in transiently transfected HEK293 cells and purified by affinity chromatography on glutathione-Sepharose. The substrate used for the kinase reaction was the biotinylated peptide biotin-Ttds-FMRLRRLSTKYRT (C terminus in amide form) which can be purchased for example from JERINI Peptide Technologies (Berlin). Aurora-C was incubated in the presence of various concentrations of test substances in 5 μL of assay buffer [25 mM Hepes/NaOH pH 7.4, 0.5 mM MnCl2, 2.0 mM dithiothreitol, 0.1 mM sodium orthovanadate, 10 μM adenosine triphosphate (ATP), […] substrate, 0.01% (v/v) TritonX-100 (Sigma), 0.05% (w/v) bovine serum albumin (BSA), 1% (v/v) dimethyl sulphoxide] at 22° C. for 60 min. The concentration of Aurora-C was adapted to the particular activity of the enzyme and adjusted so that the assay operated in the linear range. Typical concentrations were in the region of 0.3 nM. The reaction was stopped by adding 5 μl of a solution of HTRF detection reagents (0.2 μM streptavidin-XLent and 1.4 nM anti-phospho-(Ser/Thr)-Akt substrate-Eu-cryptate (C is biointernational, France, product No. 61P02KAE), a Europium-cryptate-labelled phospho-(Ser/Thr)-Akt substrate antibody [product #9611B, Cell Signaling Technology, Danvers, Mass., USA]) in aqueous EDTA solution (40 mM EDTA, 400 mM KF, 0.05% (w/v) bovine serum albumin (BSA) in 25 mM HEPES/NaOH pH 7.0).
as §1, with “formation of a complex of the biotinylated” for “formation of the biotinylated”, “and the detection reagents. The amount” for “and the streptavidin-XLent and PT66-Eu chelate. The amount”, “from the anti-phospho-(Ser/Thr)-Akt substrate-Eu cryptate to the” for “from the PT66-Eu chelate to the”

T1 sequence (P35968 807-1356 limits assumed): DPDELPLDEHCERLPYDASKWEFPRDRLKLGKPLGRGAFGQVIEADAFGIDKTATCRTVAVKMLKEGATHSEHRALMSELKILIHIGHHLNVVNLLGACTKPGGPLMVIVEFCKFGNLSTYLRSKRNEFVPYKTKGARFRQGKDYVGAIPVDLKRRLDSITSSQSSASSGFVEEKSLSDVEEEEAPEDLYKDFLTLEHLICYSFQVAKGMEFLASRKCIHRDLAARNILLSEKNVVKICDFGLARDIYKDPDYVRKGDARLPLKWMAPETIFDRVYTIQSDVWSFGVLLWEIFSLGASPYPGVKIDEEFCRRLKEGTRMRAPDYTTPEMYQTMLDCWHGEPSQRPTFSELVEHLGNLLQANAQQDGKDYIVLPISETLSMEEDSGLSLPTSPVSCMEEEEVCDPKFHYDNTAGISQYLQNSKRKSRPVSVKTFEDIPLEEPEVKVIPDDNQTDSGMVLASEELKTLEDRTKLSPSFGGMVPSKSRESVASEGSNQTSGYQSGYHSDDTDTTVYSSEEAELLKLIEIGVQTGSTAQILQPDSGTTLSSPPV

For `C[C@@H](O)[C@@H](C)Nc1nc(Nc2ccc(Oc3cccnc3)cc2)ncc1Br` [Example 33], the IC50 (KDR kinase) was 50 nM and the IC50 (human Aurora-C) was 380 nM.

In the case of `CSc1nc(Nc2ccc(Nc3ccccn3)cc2)ncc1Br` [Example 29], the IC50 (KDR kinase) is reported as > 20000 nM and the IC50 (human Aurora-C) is reported as 8100 nM.

`C[C@@H](O)[C@@H](C)Oc1nc(Nc2cccc(Nc3nccc(OCCO)n3)c2)ncc1Br` [Example 27] showed an IC50 (KDR kinase) of 32 nM and an IC50 (human Aurora-C) of 440 nM.

Work on `C[C@@H](O)[C@@H](C)Oc1nc(Nc2ccc(Nc3ncc(Cl)c(NCCO)n3)cc2)ncc1Br` [Example 21] yielded an IC50 (KDR kinase) of 73 nM and an IC50 (human Aurora-C) of 180 nM.

`C[C@@H](O)[C@@H](C)Oc1nc(Nc2ccc(Nc3ncccn3)cc2)ncc1Br` [Example 15] showed an IC50 (KDR kinase) of 74 nM and an IC50 (human Aurora-C) of 140 nM.

Molecule `CC(=O)NCCNc1nc(Nc2cccc(Nc3ncc(Br)c(NCCNC(C)=O)n3)c2)ncc1Br` [Example 30] has an IC50 (KDR kinase) of 21 nM and an IC50 (human Aurora-C) of 53 nM.

With `C[C@@H](O)[C@@H](C)Nc1nc(Nc2ccc(Oc3ncccn3)cc2)ncc1Br` [Example 34] the IC50 (KDR kinase) was 100 nM and the IC50 (human Aurora-C) was 490 nM.

With `Cc1cnc(Nc2ccc(Nc3ncc(Br)c(O[C@H](C)[C@@H](C)O)n3)cc2)nc1NCCO` [Example 19] the IC50 (KDR kinase) was 100 nM and the IC50 (human Aurora-C) was 91 nM.

`C[C@@H](O)[C@@H](C)Oc1nc(Nc2ccc(Nc3nccc(N)n3)cc2)ncc1Br` [Example 16] was tested, and the IC50 (KDR kinase) was 83 nM and the IC50 (human Aurora-C) was 42 nM.

`C[C@@H](O)[C@@H](C)Oc1nc(Nc2ccc(Nc3nccc(OCCO)n3)cc2)ncc1Br` [Example 8, (2R,3R)-3-(5-Bromo-2-{4-[4-(2-hydroxyethoxy)pyrimidin-2-ylamino]-phenylamino}pyrimidin-4-yloxy)butan-2-ol] was tested, and the IC50 (KDR kinase) was 44 nM and the IC50 (human Aurora-C) was 200 nM.

In the case of `COc1ccnc(Nc2ccc(Nc3ncc(Br)c(O[C@H](C)[C@@H](C)O)n3)cc2)n1` [Example 22], the IC50 (KDR kinase) is reported as 120 nM and the IC50 (human Aurora-C) is reported as 270 nM.

`C[C@@H](O)[C@@H](C)Oc1nc(Nc2ccc(Nc3ncc(Br)cn3)cc2)ncc1Br` [Example 24] was tested, and the IC50 (KDR kinase) was 240 nM and the IC50 (human Aurora-C) was 130 nM.

Molecule `C[C@@H](O)[C@@H](C)Oc1nc(Nc2ccc(Nc3nccc(N(C)C)n3)cc2)ncc1Br` [Example 17] has an IC50 (KDR kinase) of 62 nM and an IC50 (human Aurora-C) of 100 nM.

With `C[C@@H](O)[C@@H](C)Oc1nc(Nc2cccc(Nc3ncccn3)c2)ncc1Br` [Example 25] the IC50 (KDR kinase) was 75 nM and the IC50 (human Aurora-C) was 340 nM.

`C[C@@H](O)[C@@H](C)Sc1nc(Nc2ccc(Nc3ncc(Cl)c(NCCO)n3)cc2)ncc1Br` [Example 44] was tested, and the IC50 (KDR kinase) was 7300 nM and the IC50 (human Aurora-C) was 1000 nM.

`C[C@@H](O)[C@@H](C)Nc1nc(Nc2ccc(Sc3nncn3C)cc2)ncc1Br` [Example 39] showed an IC50 (KDR kinase) of 41 nM and an IC50 (human Aurora-C) of 350 nM.

With `C[C@@H](O)[C@@H](C)Oc1nc(Nc2ccc(Nc3nccc(NCCN(C)C)n3)cc2)ncc1Br` [Example 18] the IC50 (KDR kinase) was 140 nM and the IC50 (human Aurora-C) was 75 nM.
